Paper PMC12797250, “Structure–activity relationships can be directly extracted from high-throughput crystallographic evaluation of fragment elaborations in crude reaction mixtures” (Chemical Science, 2025)

Assays:
PHIP(2) [1] = target: T1, PHIP(2) (Homo sapiens, UniProt Q8WWQ0); test: grating-coupled interferometry (waveRAPID), immobilised PHIP([…]); format: binding
T1 construct: second bromodomain

PHIP(2) [2] = target: T1, PHIP(2); test: X-ray crystallography, crystal soak; format: binding; conditions: acetylated lysine site; soak 8 mM, 24 h, 4 °C, 20% ethylene glycol, pH about 5.6; flipped and translated pose

| Kd (PHIP(2) [1]) [µM] | SMILES | X-ray crystallography, crystal soak (PHIP(2) [2]) |
| --- | --- | --- |
| 18 | CNC(=O)N1CCN(C(=O)c2ccc(COc3ccccc3)o2)CC1 [LAT33] | – |
| – | CC1=Nc2ccc(C(=O)N3CCN(C(=O)NC(C)(C)C)CC3)cc2C1(C)C [LAT39] | long extensions towards the solvent (7FV8, LAT25 and 7FUZ, LAT39) |
